Experiments:
[1] = target: T1, A1 adenosine receptor (Mesocricetus auratus, UniProt A0A1U8BVR4); assay: Competitive radioligand binding assay, DDT cell membranes; set-up: species or system hamster; details: membranes of DDT cells; tritiated radioligand 1.5 nM; 23° C. 90 minutes; read-out: A1 BINDING AFFINITY Ki
T1 sequence (A0A1U8BVR4 1-326): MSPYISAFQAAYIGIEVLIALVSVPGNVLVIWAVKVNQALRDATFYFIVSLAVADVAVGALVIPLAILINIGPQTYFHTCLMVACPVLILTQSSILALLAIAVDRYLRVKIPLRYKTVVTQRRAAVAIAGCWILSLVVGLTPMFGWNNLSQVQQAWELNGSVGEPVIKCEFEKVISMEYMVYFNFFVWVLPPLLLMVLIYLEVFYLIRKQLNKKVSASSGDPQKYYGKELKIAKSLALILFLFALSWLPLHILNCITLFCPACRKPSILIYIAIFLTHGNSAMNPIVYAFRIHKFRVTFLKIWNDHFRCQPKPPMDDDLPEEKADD
Procedure: DDT cells (hamster vas deferens smooth muscle cell line) were grown as monolayers in petri dishes using Dulbecco's Modified Eagle's Medium (DMEM) containing 2.5 μg mL^−1 amphotericin B, 100 U mL^−1 penicillin G, 0.1 mg mL^−1 streptomycin sulfate and 5% fetal bovine serum in a humidified atmosphere of 95% air and 5% CO2. Cells were subcultured twice weekly by dispersion in Hank's Balanced Salt Solution (HBSS) without the divalent cations and containing 1 mM EDTA. The cells were then seeded in growth medium at a density of 1.2×10^5 cells per plate and experiments were performed 4 days later at approximately one day preconfluence.
Attached cells were washed twice with HBSS (2×10 mL), scraped free of the plate with the aid of a rubber policeman in 5 mL of 50 mM Tris-HCl buffer pH 7.4 at 4° C. and the suspension was homogenized for 10 s. The suspension was then centrifuged at 27,000×g for 10 min. The pellet was resuspended in homogenization buffer by vortexing and centrifuged again as described above. The final pellet was resuspended in 1 vol of 50 mM Tris-HCl buffer pH 7.4 containing 5 mM MgCl2 for A1 adenosine receptor assays. For the [^35S]GTPγS binding assay the final pellet was resuspended in 50 mM Tris-HCl pH 7.4 containing 5 mM MgCl2, 100 mM NaCl and 1 mM dithiothreitol. This membrane suspension was then placed in liquid nitrogen for 10 min and stored at −80° C. Aliquots of the membrane suspension were later thawed and used for assays. The protein content was determined with a BradfordTm Assay Kit using bovine serum albumin as standard.
Compounds of Formula I were assayed by use of competitive radioligand binding methods to determine their affinity for the A1 adenosine receptor sites on the membranes of DDT cells. […] The amount of radioactivity retained on the filters was determined by liquid scintillation spectrometry. […]

[2] = cited from earlier work

Ki [1] [nM]	Structure (SMILES)	half-life [2]
3	CCOC(=O)c1cn(-c2nc(NC3CCCC3)c3ncn([C@@H]4O[C@H](CO)[C@@H](O)[C@H]4O)c3n2)nn1 [II., ethyl 1-{9-[(4S,3R,5R)-3,4-dihydroxy-5-(hydroxymethyl)oxolan-2-yl]-6-(cyclopentylamino)purin-2-yl}-1,2,3-triazole-4-carboxylate]	
2	CNC(=O)c1cn(-c2nc(NC3CCCC3)c3ncn([C@@H]4O[C@H](CO)[C@@H](O)[C@H]4O)c3n2)nn1 [III., (1-{9-[(4S,3R,5R)-3,4-dihydroxy-5-(hydroxymethyl)oxolan-2-yl]-6-(cyclopentylamino)purin-2-yl}(1,2,3-triazol-4-yl))-N-methylcarboxamide]	
16	NC(=O)c1cn(-c2nc(NC3CCCC3)c3ncn([C@@H]4O[C@H](CO)[C@@H](O)[C@H]4O)c3n2)nn1 [IV., 1-{9-[(4S,3R,5R)-3,4-dihydroxy-5-(hydroxymethyl)oxolan-2-yl]-6-(cyclopentylamino)purin-2-yl}-1,2,3-triazole-4-carboxamide]	
	Nc1ncnc2c1ncn2[C@@H]1O[C@H](CO)[C@@H](O)[C@H]1O [adenosine]	less than 10 sec

Source: US7381714B2, “A1 adenosine receptor agonists” (CV Therapeutics, Inc., priority 2005, dated 2008)
